ChEMBL document CHEMBL1151081, “Synthesis of avermectin B1-4,4a-oxide: a precursor of potent anthelmintic agents” (Bioorg Med Chem Lett, 1992)
Values after ≈ are worked out from the molar mass of the structure shown.

Experiments:
Caenorhabditis elegans = assay: Inhibition of Caenorhabditis elegans binding evaluated using Caenorhabditis elegans motility assay; format: functional, organism-based
Gerbillinae [1] = assay: In vivo Effective dose against Trichostrongylus colubriformis in Trichostrongylus colubriformis assay using gerbils; format: functional
Artemia salina = assay: Inhibition of Artemia salina evaluated using Arternia salina Immobilization assay; format: functional
Gerbillinae [2] = assay: In vivo Effective dose against Trichostrongylus colubriformis in T. colubriformis assay using Gerbils; format: functional
[3] = Caenorhabditis elegans, read-out: IC50

Molecule CCC(C)[C@H]1O[C@]2(C=C[C@@H]1C)C[C@@H]1C[C@@H](C/C=C(\C)[C@@H](O[C@H]3C[C@H](OC)[C@@H](O[C@H]4C[C@H](OC)[C@@](O)(CSc5ccncc5)[C@H](C)O4)[C@H](C)O3)[C@@H](C)/C=C/C=C3\CO[C@@H]4[C@H](O)C(C)=C[C@@H](C(=O)O1)[C@]34O)O2 (some centres not stated) has an IC50 (Caenorhabditis elegans; [3]) of 0.11 ng/mL (≈ 0.11 nM), an ED85 (Gerbillinae [1]) of 0.125 mg/kg and an IC100 (Artemia salina) of 6930 ng/mL.
Work on IVERMECTIN [listing 1 of 2 here] yielded an IC50 (Caenorhabditis elegans) of 0.2 ng/mL.
Molecule CCC(C)[C@H]1O[C@]2(C=C[C@@H]1C)C[C@@H]1C[C@@H](C/C=C(\C)[C@@H](O[C@H]3C[C@H](OC)[C@@H](O[C@H]4C[C@H](OC)[C@@](O)(CNCC5CCCCC5)[C@H](C)O4)[C@H](C)O3)[C@@H](C)/C=C/C=C3\CO[C@@H]4[C@H](O)C(C)=C[C@@H](C(=O)O1)[C@]34O)O2 (some centres not stated) has an IC50 (Caenorhabditis elegans; [3]) of 0.13 ng/mL (≈ 0.13 nM), an ED85 (Gerbillinae [1]) of 0.25 mg/kg and an IC100 (Artemia salina) of 55500 ng/mL.
In the case of CCC(C)[C@H]1O[C@]2(C=C[C@@H]1C)C[C@@H]1C[C@@H](C/C=C(\C)[C@@H](O[C@H]3C[C@H](OC)[C@@H](O[C@H]4C[C@H](OC)[C@@](O)(CSC5CCCCC5)[C@H](C)O4)[C@H](C)O3)[C@@H](C)/C=C/C=C3\CO[C@@H]4[C@H](O)C(C)=C[C@@H](C(=O)O1)[C@]34O)O2 (some centres not stated), the IC50 (Caenorhabditis elegans; [3]) was 1.28 ng/mL (≈ 1.28 nM), the ED85 (Gerbillinae [1]) was 0.25 mg/kg and the IC100 (Artemia salina) was 6930 ng/mL.
With CCC(C)[C@H]1O[C@]2(C=C[C@@H]1C)C[C@@H]1C[C@@H](C/C=C(\C)[C@@H](O[C@H]3C[C@H](OC)[C@@H](O[C@H]4C[C@H](OC)C(O)(CSC(C)=O)C[C@H](C)O4)[C@H](C)O3)[C@@H](C)/C=C/C=C3\CO[C@@H]4[C@H](O)C(C)=C[C@@H](C(=O)O1)[C@]34O)O2 (some centres not stated) the IC50 (Caenorhabditis elegans; [3]) was 1.11 ng/mL (≈ 1.14 nM), the IC100 (Artemia salina) was 1300 ng/mL and the ED85 (Gerbillinae [2]) was 0.031 mg/kg.
Work on CCC(C)[C@H]1O[C@]2(C=C[C@@H]1C)C[C@@H]1C[C@@H](C/C=C(\C)[C@@H](O[C@H]3C[C@H](OC)[C@@H](O[C@H]4C[C@H](OC)[C@@](O)(CSCC(=O)OC)[C@H](C)O4)[C@H](C)O3)[C@@H](C)/C=C/C=C3\CO[C@@H]4[C@H](O)C(C)=C[C@@H](C(=O)O1)[C@]34O)O2 (some centres not stated) yielded an IC50 (Caenorhabditis elegans; [3]) of 1.28 ng/mL (≈ 1.29 nM), an ED85 (Gerbillinae [1]) of 0.25 mg/kg and an IC100 (Artemia salina) of 870 ng/mL.
CCCNC[C@@]1(O)[C@H](C)O[C@@H](O[C@H]2[C@H](C)O[C@@H](O[C@@H]3/C(C)=C/C[C@@H]4C[C@@H](C[C@]5(C=C[C@H](C)[C@@H](C(C)CC)O5)O4)OC(=O)[C@@H]4C=C(C)[C@@H](O)[C@H]5OC/C(=C\C=C\[C@@H]3C)[C@]54O)C[C@@H]2OC)C[C@@H]1OC (some centres not stated) was tested, and the IC50 (Caenorhabditis elegans; [3]) was 0.17 ng/mL (≈ 0.18 nM), the ED85 (Gerbillinae [1]) was 0.125 mg/kg and the IC100 (Artemia salina) was 6930 ng/mL.
CCCNCC1(O)C[C@H](C)O[C@@H](O[C@H]2[C@H](C)O[C@@H](O[C@@H]3/C(C)=C/C[C@@H]4C[C@@H](C[C@]5(C=C[C@H](C)[C@@H](C(C)CC)O5)O4)OC(=O)[C@@H]4C=C(C)[C@@H](O)[C@H]5OC/C(=C\C=C\[C@@H]3C)[C@]54O)C[C@@H]2OC)C[C@@H]1OC (some centres not stated) was tested, and the IC50 (Caenorhabditis elegans; [3]) was 1.39 ng/mL (≈ 1.45 nM), the IC100 (Artemia salina) was 27800 ng/mL and the ED85 (Gerbillinae [2]) was 0.125 mg/kg.
CCC(C)[C@H]1O[C@]2(C=C[C@@H]1C)C[C@@H]1C[C@@H](C/C=C(\C)[C@@H](O[C@H]3C[C@H](OC)[C@@H](O[C@H]4C[C@H](OC)[C@@](O)(CNCc5ccco5)[C@H](C)O4)[C@H](C)O3)[C@@H](C)/C=C/C=C3\CO[C@@H]4[C@H](O)C(C)=C[C@@H](C(=O)O1)[C@]34O)O2 (some centres not stated) gave an IC50 (Caenorhabditis elegans; [3]) of 0.1 ng/mL (≈ 0.102 nM), an ED85 (Gerbillinae [1]) of 0.063 mg/kg and an IC100 (Artemia salina) of 10415 ng/mL.
In the case of CCC(C)[C@H]1O[C@]2(C=C[C@@H]1C)C[C@@H]1C[C@@H](C/C=C(\C)[C@@H](O[C@H]3C[C@H](OC)[C@@H](O[C@H]4C[C@H](OC)[C@@](O)(CSc5ncc[nH]5)[C@H](C)O4)[C@H](C)O3)[C@@H](C)/C=C/C=C3\CO[C@@H]4[C@H](O)C(C)=C[C@@H](C(=O)O1)[C@]34O)O2 (some centres not stated), the IC50 (Caenorhabditis elegans; [3]) was 0.13 ng/mL (≈ 0.132 nM), the ED85 (Gerbillinae [1]) was 0.031 mg/kg and the IC100 (Artemia salina) was 430 ng/mL.
In the case of CCOC(CNC[C@@]1(O)[C@H](C)O[C@@H](O[C@H]2[C@H](C)O[C@@H](O[C@@H]3/C(C)=C/C[C@@H]4C[C@@H](C[C@]5(C=C[C@H](C)[C@@H](C(C)CC)O5)O4)OC(=O)[C@@H]4C=C(C)[C@@H](O)[C@H]5OC/C(=C\C=C\[C@@H]3C)[C@]54O)C[C@@H]2OC)C[C@@H]1OC)OCC (some centres not stated), the IC50 (Caenorhabditis elegans; [3]) was 0.15 ng/mL (≈ 0.147 nM), the ED85 (Gerbillinae [1]) was 0.125 mg/kg and the IC100 (Artemia salina) was 13900 ng/mL.
Molecule CCC(C)[C@H]1O[C@]2(C=C[C@@H]1C)C[C@@H]1C[C@@H](C/C=C(\C)[C@@H](O[C@H]3C[C@H](OC)[C@@H](O[C@H]4C[C@H](OC)C(O)(CC#N)C[C@H](C)O4)[C@H](C)O3)[C@@H](C)/C=C/C=C3\CO[C@@H]4[C@H](O)C(C)=C[C@@H](C(=O)O1)[C@]34O)O2 (some centres not stated) has an IC50 (Caenorhabditis elegans; [3]) of 0.7 ng/mL (≈ 0.756 nM), an IC100 (Artemia salina) of 870 ng/mL and an ED85 (Gerbillinae [2]) of 0.031 mg/kg.
Work on IVERMECTIN [listing 2 of 2 here] yielded an ED85 (Gerbillinae [1]) of 0.063 mg/kg and an IC100 (Artemia salina) of 430 ng/mL.
CCC(C)[C@H]1O[C@]2(C=C[C@@H]1C)C[C@@H]1C[C@@H](C/C=C(\C)[C@@H](O[C@H]3C[C@H](OC)[C@@H](O[C@H]4C[C@H](OC)[C@@](O)(CSC(C)=O)[C@H](C)O4)[C@H](C)O3)[C@@H](C)/C=C/C=C3\CO[C@@H]4[C@H](O)C(C)=C[C@@H](C(=O)O1)[C@]34O)O2 (some centres not stated) gave an IC50 (Caenorhabditis elegans; [3]) of 0.18 ng/mL (≈ 0.187 nM), an ED85 (Gerbillinae [1]) of 0.125 mg/kg and an IC100 (Artemia salina) of 1730 ng/mL.
CCC(C)[C@H]1O[C@]2(C=C[C@@H]1C)C[C@@H]1C[C@@H](C/C=C(\C)[C@@H](O[C@H]3C[C@H](OC)[C@@H](O[C@H]4C[C@H](OC)C(O)(CSCC(=O)OC)C[C@H](C)O4)[C@H](C)O3)[C@@H](C)/C=C/C=C3\CO[C@@H]4[C@H](O)C(C)=C[C@@H](C(=O)O1)[C@]34O)O2 (some centres not stated) gave an IC50 (Caenorhabditis elegans; [3]) of 0.88 ng/mL (≈ 0.875 nM), an IC100 (Artemia salina) of 1300 ng/mL and an ED85 (Gerbillinae [2]) of 0.063 mg/kg.
